Test results reported in patent US20060210497A1, “Novel resorcinol derivatives” (Unilever Home & Personal Care USA, Division Of Conopco, Inc., priority 2005, published 2006).

What was measured:
[1] = target: Mushroom tyrosinase; test: Mushroom tyrosinase assay; type: biochemical; settings: for IC50: L-DOPA 0.5 mM, tyrosinase 0.1 mg/ml, phosphate pH 7.0, room temperature; for potency of tyrosinase inhibition, compared in words: cyclohexyl methyl resorcinol compared with ethyl resorcinol
Method: Mushroom Tyrosinase Assay Mushroom tyrosinase inhibition is indicative of reduction in melanin synthesis, thereby showing skin lightening effect. Reagents: • Assay buffer: phosphate (100 mM, pH 7.0) • Mushroom tyrosinase stock solution (Sigma-Aldrich, Batch # 023K7024): 0.2 mg/ml in assay buffer • L-DOPA stock solution: 1.05 mM in assay buffer • Test compound stock solutions: 10 mM in DMSO Assay Conditions: • Mushroom tyrosinase: 0.1 mg/ml in assay buffer • L-DOPA: 0.5 mM in assay buffer • Test compounds: various concentrations, 2.5% final [DMSO] • Temperature: room temperature Procedure: […] The reaction is started by adding mushroom tyrosinase (100 uL of stock solution) into each well and the absorbance is monitored at 490 nm over a time period of 30 sec to 2 min. The initial reaction velocity in the presence or absence of test compounds is calculated ([…] nm/ min) and the % inhibition of test compounds is calculated using the following equation: [formula] where v0 is the initial reaction velocity in the absence of compound, v is the slope of the reaction in the absence of mushroom tyrosinase and vi is the slope of the reaction in the presence of test compound. The data (% inhibition vs. [test compound]) is fitted using data analysis software and the concentration of test compound at 50% inhibition (IC50) is determined from the fitted data. The IC50 value refers to the skin lightener concentration that results in 50% tyrosinase inhibition relative to the control (with a goal being obtaining maximum tyrosinase inhibition at minimum concentration).

[2] = system: human sebocytes; test: Sebocyte assay (14C-acetate incorporation, sebocyte lipid synthesis); type: cell-based
Method: Sebocyte Assay Procedure:
Secondary cultures of human sebocytes obtained from an adult […] were grown in 96-well tissue culture plates (Packard) until three days post-confluence. Sebocyte growth medium consisted of Clonetics Keratinocyte Basal Medium (KBM) supplemented with 14 ug/ml bovine pituitary extract, 0.4 ug/ml hydrocortisone, 5 ug/ml insulin, 10 ng/ml epidermal growth factor, 1.2×10^−10 M cholera toxin, 100 units/ml penicillin, and 100 ug/ml streptomycin. All cultures were incubated at 37° C. in the presence of 7.5% CO2. Medium was changed three times per week.
On the day of experimentation, the growth medium was removed and the sebocytes washed three times with sterile Dulbecco's Modified Eagle Medium (DMEM; phenol red free). Fresh DMEM was added to each sample (triplicates) with 2-microliters of test agent solubilized in ethanol. Controls consisted of addition of ethanol alone. Each plate was returned to the incubator for 20-hours followed by the addition of ^14C-acetate buffer (5 mM final concentration, 56 mCi/mmol specific activity). Sebocytes were returned to the incubator for 4-hours, after which, each culture was rinsed 3-times with phosphate buffered saline to remove unbound label. Radioactive label remaining in the sebocytes was determined using a Packard TopCount scintillation counter. Statistical significance (p value) was calculated using student's t-test. Phenol Red, a known sebum suppressive agent, was employed as a positive control.

Compound | IC50 [1] [nM] | potency of tyrosinase inhibition, compared in words [1] | activity at 10 µM ([2]; Homo sapiens, 10 uM test agent, 20 h incubation then 4 h 14C-acetate label, read-out: % of Control (ethanol)) [%] | activity at 100 µM ([2]; Homo sapiens, 100 uM test agent, 20 h incubation then 4 h 14C-acetate label, read-out: % of Control (ethanol)) [%] | reduction in sebocyte lipid synthesis as compared to the vehicle control ([2]; concentration on the order of about 100 micro-molar) | activity at 28 µM ([2]; Homo sapiens, 28 uM test agent, 20 h incubation then 4 h 14C-acetate label, read-out: % of Control (ethanol)) [%] | activity at 280 µM ([2]; Homo sapiens, 280 uM test agent, 20 h incubation then 4 h 14C-acetate label, read-out: % of Control (ethanol)) [%]
CCc1ccc(O)cc1O [4-ethyl resorcinol (ER), 4-ethyl resorcinol, reference compound] | 1100 | comparable potency |  |  |  |  | 
Oc1ccc(CC2CCCCC2)c(O)c1 [CHMR, 4-cyclohexylmethyl resorcinol] | 950 | comparable potency | 98.9 | 69.3 | statistically significant reduction |  | 
O=S1(=O)OC(c2ccc(O)cc2)(c2ccc(O)cc2)c2ccccc21 [Phenol Red, reference compound] |  |  |  |  |  | 84.4 | 45.9
